Each structure is given as a SMILES string.

This data set relates to 1x PBS pH 7.4 stability, LC/MS/MS, 48 h RT. Put plainly: chemical stability in phosphate buffer, ADME assay, biochemical, 1x PBS, pH 7.4 (AID 493010). To be noted: stronger effect = lower value.

Consider `COc1ccc(C2CC(c3ccccc3)=NN2c2ccc(S(N)(=O)=O)cc2)cc1` (centres undefined), for which the percent remaining is 27%.
As to `COc1cccc(C2=NN(c3ccc(S(N)(=O)=O)cc3)C(c3ccc(Br)cc3)C2)c1` (centres undefined), the percent remaining turned out to be 10.6%.
As to `CC(C)(C)c1ccc(C(=O)Nc2cc(Cl)c(Br)cc2C(=O)O)cc1`, the percent remaining is 108%.
In the case of `CC(C)(C)c1ccc(C(=O)Nc2cc(Cl)c(Cl)cc2C(=O)O)cc1`, the percent remaining amounted to 124%.

(Values after PubChem BioAssay AID493010 (Sanford-Burnham Center for Chemical Genomics, 2011).)
